Laboratory results reported in patent US11802107B2, “Compounds and methods of use” (Signum Biosciences, Inc., priority 2017, dated 2023).

Legend:
Swiss Webster (ICR) mice = experiment: TPA-induced skin irritation in vivo model (mouse ear); conditions: 24 hour
Description: Outbred male Swiss Webster (ICR) mice were purchased from Hilltop Lab Animals (Scottdale, PA) and were used between 10 and 12 weeks of age and we followed a similar protocol previously described (Gordon et al., 2008). Mice received 1.2 μg/20 μl TPA dissolved in acetone (10 μl applied both to the dorsal and ventral surfaces of the mouse ear using a solvent pipette) to each ear to induce acute irritation (6 per group). Test Materials were co-treated with TPA or applied 5 minutes after TPA dose, at various concentrations (0.6 to 800 μg/20 μl) in ethanol. After 24 hour treatment, edema was measured by ear thickness.

IL-13 = experiment: Concanavalin-A-induced IL-13 on PBMCs; type: cell-based; conditions: Homo sapiens, PBMC, ConA, 24 hours, ELISA
Balb/C mice = experiment: Oxazolone-induced delayed-type hypersensitivity (DTH) in vivo model
Outline: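 Male Balb/C mice (8-10 weeks) sensitized with 3% oxazolone on dorsal skin, ear-challenged on day 7 with 0.5%; test materials at 3% w/v topically to both ear surfaces 30 min post-challenge in 60:40 H2O:EtOH. Ear edema and IL-4 ELISA of 6-mm biopsies at 24 h; % inhibition, n=5-15/group.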

IL-17 = experiment: P. acnes-induced IL-17 protein on human PBMCs (ELISA); type: cell-based; conditions: PBMC, PBMCs + live P. acnes 1:1, test material 30 PM, 24 hours
Description: (§1) Cryopreserved human Peripheral Blood Mononuclear cells (PBMCs) from healthy adult donors were obtained from Zen Bio, Inc (Cat No. SER-PBMC-F). Cells were cultured in 12-well plates with lymphocyte media (Cat No. LYMPH-1) and incubated with test materials ([…]) and live P. acnes (ATCC® 6919TM) at 1:1 PBMC: P. acnes bacteria ratio for 24 hours at 37° C. and 5% CO2. After incubation, cell media supernatants were harvested and used to measure pro-inflammatory cytokine levels (IL-8, TNF-α, IL-1b, IL-17) using ELISA kits (BD Biosciences® #557966, #555212, #555244; R&D Systems® #DY317). Total RNA was extracted from cells using the RNAqueous® kit (Ambion®; Cat No. 1912) and cDNA was obtained using the High Capacity RNA-to-cDNA kit (Applied Biosystems®; Cat No. 4387406). Quantitative PCR (qPCR) was performed using the TaqMan® Fast Advanced Master Mix (Applied Biosystems®; Cat No. 4444556) and specific TaqMan®-probes human gene primers CXCL8 (IL-8), IL1B (IL-1b), TNF (TNF-α), IL17A (IL-17A) and GAPDH to calculate the relative gene fold expression change per treatment. Gene expression analysis was performed using the comparative Ct method (also known as the 2-[delta][delta]Ct) approach by comparing the Ct values of P. acnes-only treated cells with the untreated samples and normalized to GAPDH gene expression as endogenous housekeeping gene.

HCAP18 = experiment: NHEK antimicrobial peptide gene expression, hCAP18; type: cell-based, human; conditions: 10 μM, 24 hours, qPCR, normalized to GAPDH
Description: (§2) Normal human epidermal keratinocytes (NHEKs) from neonatal donors were obtained from Thermo-Fisher (Cat No. C-001-5C). Cells were cultured in 6-well plates for 24 hours before treatments with EpiLife media (Cat No. MEPI500CA) supplemented with keratinocytes growth supplement (Cat No. 50015). On Day 2, media was removed and incubated with test materials (10 μM) for 24 hours at 37° C. and 5% CO2. On Day 3, total RNA was extracted from cells using the RNAqueous® kit (Ambion®; Cat No. 1912) and cDNA was obtained using the High Capacity RNA-to-cDNA kit (Applied Biosystems®; Cat No. 4387406). Quantitative PCR (qPCR) was performed using the TaqMan® Fast Advanced Master Mix (Applied Biosystems®; Cat No. 4444556) and specific TaqMan®-probes human gene primers DEFB4B (hBD2), DEFB103 (hBD3), HCAP18 and GAPDH to calculate the relative gene fold expression change per treatment. Gene expression analysis was performed using the comparative Ct method (also known as the 2-[delta][delta]Ct) approach by comparing the Ct values of the treated samples with the untreated samples and normalized to GAPDH gene expression as endogenous housekeeping gene. Results were represented as fold-expression/untreated cells.

TNF-α = experiment: P. acnes-induced TNF-α protein on human PBMCs (ELISA); type: cell-based; conditions: PBMCs + live P. acnes 1:1, test material 30 PM, 24 hours
Description: as §1

DEFB103 (hBD3) = experiment: NHEK antimicrobial peptide gene expression, hBD3; type: cell-based, human; conditions: 10 μM, 24 hours, qPCR, normalized to GAPDH
Description: as §2

[1] = tested on: P. acnes (ATCC 6919) biofilms; experiment: P. acnes biofilm eradication (MBEC), crystal violet; type: cell-based, Propionibacterium acnes; conditions: 24 hours, ≥80% eradication vs vehicle
Description: P. acnes (ATCC® 6919™) was cultured as described above. Bacteria biofilms were established by seeding P. acnes cultures in 96-well plates and incubating for 24 hours without agitation. Later, biofilms were incubated with test materials for 24 hours. Remaining biofilms were washed and stained with crystal violet. […] The absorbance was measured at 595 nm in a microplate reader. […] Results from disk diffusion susceptibility testing (Kirby-Bauer Method) after 72 hours incubation were also obtained.

[2] = topical @ 1% w/v, ear thickness
[3] = Mus musculus, topical to ears @ 3% w/v, 24 hours, read-out: Edema % inhibition
[4] = topical to ears @ 3% w/v, 24 hours, ear biopsy ELISA

Row | Compound | IC50 (IL-13) | Edema (% inhibition) (Swiss Webster (ICR) mice; [2]) | inhibition in vivo at 3 % strength (Balb/C mice; [3]) | inhibition at 30 pM (IL-17) | MPO (% inhibition) (Swiss Webster (ICR) mice; topical @ 1% w/v) | hCAP18 gene expression (HCAP18) | Edema (% inhibition) (Balb/C mice; dose 0.2 Mg/ear, average±S.E.) | MPO (% inhibition) (Balb/C mice; dose 0.2 Mg/ear, average±S.E.) | Edema (% inhibition) (Balb/C mice; dose 0.6 Mg/ear, average±S.E.) | MPO (% inhibition) (Balb/C mice; dose 0.6 Mg/ear, average±S.E.) | Edema (% inhibition) (Balb/C mice; dose 1 Mg/ear, average±S.E.) | MPO (% inhibition) (Balb/C mice; dose 1 Mg/ear, average±S.E.) | IL-4 (% inhibition) (Balb/C mice; [4]) | TNFa-Protein % inhibition (TNF-α) | hBD3 gene expression (DEFB103 (hBD3)) | MBEC [1] | other results
1 | N#Cc1ccc(Oc2ccc3c(c2)COB3O)cc1 [AN2728, reference compound] | 3800 nM | – | – | – | – | – | – | – | – | – | – | – | – | – | – | – | Edema (% inhibition) (Swiss Webster (ICR) mice; topical, AN2728 at 2%): 43%; inhibition in vivo at 2 % (Balb/C mice; Mus musculus, topical @2%, 24 hours, read-out: Edema % inhibition): 0%; Edema (% inhibition) (Balb/C mice; dose 0.4 Mg/ear, average±S.E.): 17 ± 5%; IL-4 (% inhibition) (Balb/C mice; dose 0.4 Mg/ear, average±S.E.): 76 ± 9%; MPO (% inhibition) (Balb/C mice; dose 0.4 Mg/ear, average±S.E.): 36 ± 12%; IL-4 (% inhibition) (Balb/C mice; topical @2%, 24 hours): 76 (@2%)
2 | C/C(=C\CSCC(NC(=O)NCC(=O)O)C(=O)O)CCCC(C)CCCC(C)CCCC(C)C (stereo not drawn) [A] | – | 50% | 44% | 32% | – | – | – | – | – | – | – | – | – | – | – | – | –
3 | C/C(=C\CSC[C@H](NC(=O)N(C)CC(=O)O)C(=O)O)CCCC(C)CCCC(C)CCCC(C)C (stereo partly drawn) [Compound C, (2R)-2-{[(carboxymethyl)(methyl)carbamoyl]amino}-3-{[(2E)-3,7,11,15-tetramethylhexadec-2-en-1-yl]sulfanyl}propanoic acid] | 8200 nM | 64% | 53% | 0% | 88% | 0.5 Fold-expression/untreated cells | 23 ± 4% | 22 ± 9% | 53 ± 5% | 67 ± 23% | 72 ± 4% | 81 ± 5% | 41% | 0% | 9.5 Fold-expression/untreated cells | 9 µg/mL | IL-4 (% inhibition) (Balb/C mice; dose 0.2 Mg/ear, average±S.E.): 33 ± 9%; IL-4 (% inhibition) (Balb/C mice; dose 0.6 Mg/ear, average±S.E.): 41 ± 10%; IL-4 (% inhibition) (Balb/C mice; dose 1 Mg/ear, average±S.E.): 62 ± 11%
4 | C/C(=C\CSC[C@H](NC(=O)N1CCC[C@H]1C(=O)O)C(=O)O)CCCC(C)CCCC(C)CCCC(C)C (stereo partly drawn) [Compound E] | 1500 nM | – | 51% | 23% | – | 0.7 Fold-expression/untreated cells | – | – | 22% | – | 51 ± 9% | – | – | 0% | 2.9 Fold-expression/untreated cells | 12 μg/mL and (21) μM | –
5 | C/C(=C\CSCC(NC(=O)N(CC(=O)O)CC(=O)O)C(=O)O)CCCC(C)CCCC(C)CCCC(C)C (stereo not drawn) [Compound G] | 20 nM | – | 41% | 29% | – | 0.6 Fold-expression/untreated cells | – | – | 41% | – | – | – | – | 0% | 4.7 Fold-expression/untreated cells | 7 μg/mL and (11) μM | –
6 | C/C(=C\CSC[C@H](NC(=O)COCC(=O)O)C(=O)O)CCCC(C)CCCC(C)CCCC(C)C (stereo partly drawn) [Compound T] | 100 nM | 61% | 31% | – | 83% | – | 20 ± 4% | 30 ± 14% | 31 ± 6% | 41 ± 18% | 53 ± 8% | 71 ± 3% | 53% | – | – | – | –
